Source: US7531623B2, “Hydrochloride salts of a glycopeptide phosphonate derivative” (Theravance, Inc., priority 2003, dated 2009)

Experiment: Stability of hydrochloride salts of telavancin on storage (HPLC area % of pseudoaglycone and aglycone impurities)
Assay type: physicochemical
Details: for Aglycone of Cmpd 1 (HPLC area %) Initial / Pseudoaglycone of Cmpd 1 (HPLC area %) Initial: before storage at 25° C.; for Aglycone of Cmpd 1 (HPLC area %) 2 Week / Pseudoaglycone of Cmpd 1 (HPLC area %) 2 Week: stored at 25° C. for 2 weeks, glass vials; for Aglycone of Cmpd 1 (HPLC area %) 2-Week Change / Pseudoaglycone of Cmpd 1 (HPLC area %) 2-Week Change: stored at 25° C., difference between 2-week and initial value
Description: In the examples described below, HPLC sample analysis was conducted using an Agilent (Palo Alto, Calif.) Series 1100 instrument with Zorbax RP-Bonus 4.6 mm×250 mm columns, supplied by Agilent, having a 5 micron pore size, packed on C14 silica. Detection was by UV absorbance at 254 nm. Mobile phase A was 2%-98%-0.1% ACN-H2O-TFA; and mobile phase B was 90%-10%-0.1% ACN-H2O-TFA. A flow rate of 1.0 mL/min was used with moble phase A containing a gradient of mobile phase B as follows: 10 to 43% B for 30 min;, 43% B for 5 min; 43 to 100% B for 5 min; 100 to 10% B for 1 min; and 10% B for 14 min.
The effect of chloride ion content on the stability of hydrochloride salts of telavancin stored at −20° C., 5° C. and 25° C. was determined.
Eight lots of telavancin hydrochloride salts prepared as described in Example 2 were placed in identical glass vials and stored at −20° C., 5° C. and 25° C. under otherwise identical conditions for two weeks. The changes in HPLC area % for the pseudoaglycone and aglycone impurities were used to evaluate relative stability.
For each sample, the pH of the mixture from which it was isolated, is indicated. The column entitled, “2 Week Change” is the difference in HPLC area % between the value observed after two weeks and the initial value and is graphically illustrated in FIGS. 1 and 2.

Row | SMILES | Aglycone of Cmpd 1 (HPLC area %) Initial [HPLC area %] | Pseudoaglycone of Cmpd 1 (HPLC area %) Initial [HPLC area %] | Aglycone of Cmpd 1 (HPLC area %) 2 Week [HPLC area %] | Pseudoaglycone of Cmpd 1 (HPLC area %) 2 Week [HPLC area %] | Aglycone of Cmpd 1 (HPLC area %) 2-Week Change | Pseudoaglycone of Cmpd 1 (HPLC area %) 2-Week Change
1 | CCCCCCCCCCNCCN[C@@]1(C)C[C@H](O[C@H]2[C@H](Oc3c4cc5cc3Oc3ccc(cc3Cl)[C@@H](O)[C@@H](NC(=O)[C@@H](CC(C)C)NC)C(=O)N[C@@H](CC(N)=O)C(=O)N[C@H]5C(=O)N[C@H]3C(=O)N[C@H](C(=O)N[C@H](C(=O)O)c5cc(O)c(CNCP(=O)(O)O)c(O)c5-c5cc3ccc5O)[C@H](O)c3ccc(c(Cl)c3)O4)O[C@H](CO)[C@@H](O)[C@@H]2O)O[C@@H](C)[C@H]1O [2.42, telavancin] | 0.03 | 0.32 | 0.05 | 0.40 | +0.02 HPLC area % | +0.08 HPLC area %
2 | CCCCCCCCCCNCCN[C@@]1(C)C[C@H](O[C@H]2[C@H](Oc3c4cc5cc3Oc3ccc(cc3Cl)[C@@H](O)[C@@H](NC(=O)[C@@H](CC(C)C)NC)C(=O)N[C@@H](CC(N)=O)C(=O)N[C@H]5C(=O)N[C@H]3C(=O)N[C@H](C(=O)N[C@H](C(=O)O)c5cc(O)c(CNCP(=O)(O)O)c(O)c5-c5cc3ccc5O)[C@H](O)c3ccc(c(Cl)c3)O4)O[C@H](CO)[C@@H](O)[C@@H]2O)O[C@@H](C)[C@H]1O [3.68, telavancin] | 0.06 | 0.43 | 0.08 | 0.51 | +0.02 HPLC area % | +0.08 HPLC area %
3 | CCCCCCCCCCNCCN[C@@]1(C)C[C@H](O[C@H]2[C@H](Oc3c4cc5cc3Oc3ccc(cc3Cl)[C@@H](O)[C@@H](NC(=O)[C@@H](CC(C)C)NC)C(=O)N[C@@H](CC(N)=O)C(=O)N[C@H]5C(=O)N[C@H]3C(=O)N[C@H](C(=O)N[C@H](C(=O)O)c5cc(O)c(CNCP(=O)(O)O)c(O)c5-c5cc3ccc5O)[C@H](O)c3ccc(c(Cl)c3)O4)O[C@H](CO)[C@@H](O)[C@@H]2O)O[C@@H](C)[C@H]1O [3.94, telavancin] | 0.04 | 0.43 | 0.09 | 0.56 | +0.05 HPLC area % | +0.13 HPLC area %
4 | CCCCCCCCCCNCCN[C@@]1(C)C[C@H](O[C@H]2[C@H](Oc3c4cc5cc3Oc3ccc(cc3Cl)[C@@H](O)[C@@H](NC(=O)[C@@H](CC(C)C)NC)C(=O)N[C@@H](CC(N)=O)C(=O)N[C@H]5C(=O)N[C@H]3C(=O)N[C@H](C(=O)N[C@H](C(=O)O)c5cc(O)c(CNCP(=O)(O)O)c(O)c5-c5cc3ccc5O)[C@H](O)c3ccc(c(Cl)c3)O4)O[C@H](CO)[C@@H](O)[C@@H]2O)O[C@@H](C)[C@H]1O [4.41, telavancin] | 0.06 | 0.42 |  | 0.53 |  | +0.11 HPLC area %
5 | CCCCCCCCCCNCCN[C@@]1(C)C[C@H](O[C@H]2[C@H](Oc3c4cc5cc3Oc3ccc(cc3Cl)[C@@H](O)[C@@H](NC(=O)[C@@H](CC(C)C)NC)C(=O)N[C@@H](CC(N)=O)C(=O)N[C@H]5C(=O)N[C@H]3C(=O)N[C@H](C(=O)N[C@H](C(=O)O)c5cc(O)c(CNCP(=O)(O)O)c(O)c5-c5cc3ccc5O)[C@H](O)c3ccc(c(Cl)c3)O4)O[C@H](CO)[C@@H](O)[C@@H]2O)O[C@@H](C)[C@H]1O [4.59, telavancin] | 0.10 | 0.52 | 0.17 | 0.72 | +0.07 HPLC area % | +0.20 HPLC area %
6 | CCCCCCCCCCNCCN[C@@]1(C)C[C@H](O[C@H]2[C@H](Oc3c4cc5cc3Oc3ccc(cc3Cl)[C@@H](O)[C@@H](NC(=O)[C@@H](CC(C)C)NC)C(=O)N[C@@H](CC(N)=O)C(=O)N[C@H]5C(=O)N[C@H]3C(=O)N[C@H](C(=O)N[C@H](C(=O)O)c5cc(O)c(CNCP(=O)(O)O)c(O)c5-c5cc3ccc5O)[C@H](O)c3ccc(c(Cl)c3)O4)O[C@H](CO)[C@@H](O)[C@@H]2O)O[C@@H](C)[C@H]1O [4.69, telavancin] | 0.07 | 0.45 | 0.13 | 0.62 | +0.06 HPLC area % | +0.17 HPLC area %
7 | CCCCCCCCCCNCCN[C@@]1(C)C[C@H](O[C@H]2[C@H](Oc3c4cc5cc3Oc3ccc(cc3Cl)[C@@H](O)[C@@H](NC(=O)[C@@H](CC(C)C)NC)C(=O)N[C@@H](CC(N)=O)C(=O)N[C@H]5C(=O)N[C@H]3C(=O)N[C@H](C(=O)N[C@H](C(=O)O)c5cc(O)c(CNCP(=O)(O)O)c(O)c5-c5cc3ccc5O)[C@H](O)c3ccc(c(Cl)c3)O4)O[C@H](CO)[C@@H](O)[C@@H]2O)O[C@@H](C)[C@H]1O [5.60, telavancin] | 0.15 | 0.48 | 0.41 | 1.11 |  | 
8 | CCCCCCCCCCNCCN[C@@]1(C)C[C@H](O[C@H]2[C@H](Oc3c4cc5cc3Oc3ccc(cc3Cl)[C@@H](O)[C@@H](NC(=O)[C@@H](CC(C)C)NC)C(=O)N[C@@H](CC(N)=O)C(=O)N[C@H]5C(=O)N[C@H]3C(=O)N[C@H](C(=O)N[C@H](C(=O)O)c5cc(O)c(CNCP(=O)(O)O)c(O)c5-c5cc3ccc5O)[C@H](O)c3ccc(c(Cl)c3)O4)O[C@H](CO)[C@@H](O)[C@@H]2O)O[C@@H](C)[C@H]1O [5.74, telavancin] | 0.43 | 0.89 | 1.08 | 1.94 |  | 
